Among the data in patent US20190367516A1 (Bayer Pharma Aktiengesellschaft, priority 2015, published 2019) are EC50, Emax and Efficiency values, retold here.

This assay deals with T1, human M2 receptor (Homo sapiens, UniProt P08172).
T1 sequence (P08172 1-466): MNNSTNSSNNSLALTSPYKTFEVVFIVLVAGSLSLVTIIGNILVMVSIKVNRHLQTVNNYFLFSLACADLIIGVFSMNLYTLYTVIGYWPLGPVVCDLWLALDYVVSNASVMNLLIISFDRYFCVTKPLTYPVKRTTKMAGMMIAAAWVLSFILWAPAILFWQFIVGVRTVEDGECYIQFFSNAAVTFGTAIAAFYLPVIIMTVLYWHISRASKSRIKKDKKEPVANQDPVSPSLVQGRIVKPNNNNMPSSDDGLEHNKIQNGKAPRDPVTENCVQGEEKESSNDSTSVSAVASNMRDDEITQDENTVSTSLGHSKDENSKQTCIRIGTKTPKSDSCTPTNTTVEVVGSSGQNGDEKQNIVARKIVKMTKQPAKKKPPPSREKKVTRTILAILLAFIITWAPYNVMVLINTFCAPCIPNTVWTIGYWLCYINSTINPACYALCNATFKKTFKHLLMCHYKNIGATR

[1] abbreviates: Receptor activity EC50, allosteric potency at EC20 acetylcholine, M2-GIRK1/4 reporter cells, in some cases mean of two or more determinations.
Where [2] appears, read: read-out: Efficiency, boosting of the acetylcholine effect at EC20 acetylcholine concentration, M2-GIRK1/4 reporter cells.
Setting [3] is: Receptor activity EC50, M2-GIRK1/4 activation test, acetylcholine at EC20, allosteric potency, in some cases mean values from two or more determinations.

pEC50: −log10 of the molar value. Like-named read-outs stand apart in the source and are kept apart here.

`CC[C@@H](NC(=O)c1cn(-c2ccc(F)cc2F)c2nc(N3C(=O)NCC3C)ccc2c1=O)C(F)(F)F` (stereo partly drawn) [Example 434, 1-(2,4-Difluorophenyl)-7-[5-methyl-2-oxoimidazolidin-1-yl]-4-oxo-N-[(2R)-1,1,1-trifluorobutan-2-yl]-1,4-dihydro-1,8-naphthyridine-3-carboxamide] had a pEC50 under setting [1] of 7.21. The Emax under setting [2] came out at 92%.
In the case of `CC[C@@H](NC(=O)c1cn(-c2ccc(F)cc2F)c2nc(N3CC(C)CC3=O)ccc2c1=O)C(F)(F)F` (single isomer, unassigned) [Example 303], the pEC50 under setting [3] was 7.22.
`CC[C@H](NC(=O)c1cn(-c2c(F)cc(F)cc2F)c2nc(N(C)C[C@@H](C)O)ccc2c1=O)C(F)(F)F` [Example 495] gave a pEC50 under setting [1] of 7.51. The Emax under setting [2] amounted to 99.5%.
Under setting [3], `CC[C@H](NC(=O)c1cn(-c2ccc(F)cc2F)c2nc(N3CCC(F)(F)C3)ccc2c1=O)C(F)(F)F` [Example 75, 1-(2,4-Difluorophenyl)-7-(3,3-difluoropyrrolidin-1-yl)-4-oxo-N-[(2S)-1,1,1-trifluorobutan-2-yl]-1,4-dihydro-1,8-naphthyridine-3-carboxamide] showed a pEC50 of 7.14.
As for `O=C(N[C@@H](C1CC1)C(F)(F)F)c1cn(-c2c(F)cc(F)cc2F)c2nc(N3CCC(CO)C3=O)ccc2c1=O` (some centres unmarked) [Example 468, N-[(1 S)-1-Cyclopropyl-2,2,2-trifluoroethyl]-7-[3-(hydroxymethyl)-2-oxopyrrolidin-1-yl]-4-oxo-1-(2,4,6-trifluorophenyl)-1,4-dihydro-1,8-naphthyridine-3-carboxamide], the pEC50 under setting [1] is 7.64. Besides, the Emax under setting [2] amounted to 98.5%.
As to `CC(NC(=O)c1cn(-c2c(F)cc(F)cc2F)c2nc(N3CCNC3=O)ccc2c1=O)C(F)(F)C(F)(F)F` (racemic) [Example 540, 4-Oxo-7-(2-oxoimidazolidin-1-yl)-N-[3,3,4,4,4-pentafluorobutan-2-yl]-1-(2,4,6-trifluorophenyl)-1,4-dihydro-1,8-naphthyridine-3-carboxamide], the pEC50 under setting [1] was 8.05. Besides, under setting [2], the Emax was found to be 90%.
As for `CN(CC(F)F)c1ccc2c(=O)c(C(=O)NC(C(F)(F)F)C(F)(F)F)cn(-c3ccc(F)cc3F)c2n1` [Example 115, 7-[(2,2-Difluoroethyl)(methyl)amino]-1-(2,4-difluorophenyl)-N-[1,1,1,3,3,3-hexafluoropropan-2-yl)-4-oxo-1,4-dihydro-1,8-naphthyridine-3-carboxamide], under setting [3], the negative logarithm of the EC50 (pEC50) was 7.14.
As to `C[C@H](NC(=O)c1cn(-c2c(F)cccc2F)c2nc(N3CC4CC4(O)C3)ccc2c1=O)C(F)(F)F` (single isomer, unassigned) [Example 312], the pEC50 under setting [3] is 7.14.
Turning to `CC1(O)CCN(c2ccc3c(=O)c(C(=O)NC(C4CC4)C(F)(F)F)cn(-c4c(F)cccc4F)c3n2)C1` (racemic) [Example 326, N-[1-Cyclopropyl-2,2,2-trifluoroethyl]-1-(2,6-difluorophenyl)-7-[3-hydroxy-3-methylpyrrolidin-1-yl]-4-oxo-1,4-dihydro-1,8-naphthyridine-3-carboxamide], under setting [3], the pEC50 is 7.33.
Under setting [1], `O=C(N[C@@H](C1CC1)C(F)(F)F)c1cn(-c2c(F)cccc2F)c2nc(N3CCNC3=O)ccc2c1=O` [Example 644, N-[(1 S)-1-Cyclopropyl-2,2,2-trifluoroethyl]-1-(2,6-difluorophenyl)-4-oxo-7-(2-oxoimidazolidin-1-yl)-1,4-dihydro-1,8-naphthyridine-3-carboxamide] had a pEC50 of 7.13. Besides, the Emax under setting [2] turned out to be 85%.
Molecule `O=C(NC12CC3CC(CC(C3)C1)C2)c1cn(-c2ccc(F)cc2F)c2nc(N3CCCC(F)(F)C3)ccc2c1=O` [Example 1, 1-(2,4-Difluorophenyl)-7-(3,3-difluoropiperidin-1-yl)-4-oxo-N-(tricyclo[3.3.1.1^3,7]dec-1-yl)-1,4-dihydro-1,8-naphthyridine-3-carboxamide] showed a pEC50 under setting [3] of 7.85.
Regarding `CC[C@H](NC(=O)c1cn(-c2c(F)cc(F)cc2F)c2nc(N3CC4CC4(O)C3)ccc2c1=O)C(F)(F)F` (mixture of isomers) [Example 416, 7-[1-Hydroxy-3-azabicyclo[3.1.0]hex-3-yl]-4-oxo-N-[(2S)-1,1,1-trifluorobutan-2-yl]-1-(2,4,6-trifluorophenyl)-1,4-dihydro-1,8-naphthyridine-3-carboxamide], the pEC50 under setting [1] is 8.10. Besides, the Emax (read-out: Efficiency) was 92%.
With `CC1CN(c2ccc3c(=O)c(C(=O)N[C@@H](C4CC4)C(F)(F)F)cn(-c4c(F)cc(F)cc4F)c3n2)C(=O)O1` (mixture of isomers) [Example 436, N-[(1 S)-1-Cyclopropyl-2,2,2-trifluoroethyl]-7-[5-methyl-2-oxo-1,3-oxazolidin-3-yl]-4-oxo-1-(2,4,6-trifluorophenyl)-1,4-dihydro-1,8-naphthyridine-3-carboxamide], under setting [1], the pEC50 is 7.09. Further, under setting [2], the Emax turned out to be 94%.
In turn, `CC(NC(=O)c1cn(-c2ccc(F)cc2F)c2nc(N3C[C@@H](O)CC3=O)ccc2c1=O)C(F)(F)C(F)(F)F` (single isomer, unassigned) [Example 624] gave a pEC50 under setting [1] of 6.85. Besides, the Efficiency (boosting of the acetylcholine effect at EC20 acetylcholine concentration, M2-GIRK1/4 reporter cells) is 96.5%.
For the molecule `O=C(Nc1c(Cl)cccc1Cl)c1cn(-c2ccc(F)cc2F)c2nc(N3C[C@@H](O)[C@@H](O)C3)ccc2c1=O` [Example 651, N-(2,6-Dichlorophenyl)-1-(2,4-difluorophenyl)-7-[(3R,4S)-3,4-dihydroxypyrrolidin-1-yl]-4-oxo-1,4-dihydro-1,8-naphthyridine-3-carboxamide], the pEC50 under setting [1] was 7.07. Besides, the Emax under setting [2] worked out at 95%.
Under setting [1], `O=C(N[C@@H](C1CC1)C(F)(F)F)c1cn(-c2c(F)cc(F)cc2F)c2nc(N3CCC(O)(CO)CC3)ccc2c1=O` [Example 663, N-[(1 S)-1-Cyclopropyl-2,2,2-trifluoroethyl]-7-[4-hydroxy-4-(hydroxymethyl)piperidin-1-yl]-4-oxo-1-(2,4,6-trifluorophenyl)-1,4-dihydro-1,8-naphthyridine-3-carboxamide] had a pEC50 of 7.52. Moreover, the Emax under setting [2] was found to be 90.5%.
In turn, `CC(C)(NC(=O)c1cn(-c2c(F)cc(F)cc2F)c2nc(N3C[C@@H](O)[C@H](O)C3)ccc2c1=O)C1CC1` [Example 379, N-(2-Cyclopropylpropan-2-yl)-7-[(3R,4R)-3,4-dihydroxypyrrolidin-1-yl]-4-oxo-1-(2,4,6-trifluorophenyl)-1,4-dihydro-1,8-naphthyridine-3-carboxamide] showed a pEC50 under setting [3] of 7.46.
In turn, `CC[C@H](NC(=O)c1cn(-c2c(F)cc(F)cc2F)c2nc(N3CCN(C)CC3)ccc2c1=O)C(F)(F)F` [Example 496] showed a pEC50 under setting [1] of 7.17. The Emax under setting [2] was determined as 89%.
`CC(C)C(NC(=O)c1cn(-c2c(F)cc(F)cc2F)c2nc(N3C[C@@H](O)CC3=O)ccc2c1=O)C(F)(F)F` (mixture of isomers) [Example 526, 7-[(4S)-4-Hydroxy-2-oxopyrrolidin-1-yl]-4-oxo-N-[1,1,1-trifluoro-3-methylbutan-2-yl]-1-(2,4,6-trifluorophenyl)-1,4-dihydro-1,8-naphthyridine-3-carboxamide]: the pEC50 under setting [1] is 8.05. Further, the Emax under setting [2] turned out to be 100%.
On to `O=C(NC12CC3CC(CC(C3)C1)C2)c1cn(-c2ccc(F)cc2F)c2nc(N3CCC(F)(CO)CC3)ccc2c1=O` [Example 16, 1-(2,4-Difluorophenyl)-7-[4-fluoro-4-(hydroxymethyl)piperidin-1-yl]-4-oxo-N-(tricyclo[3.3.1.1^3,7]dec-1-yl)-1,4-dihydro-1,8-naphthyridine-3-carboxamide], for which, under setting [3], the pEC50 is 7.05.
In turn, `CCC(COC(F)(F)F)NC(=O)c1cn(-c2c(F)cc(F)cc2F)c2nc(N3CCNC3=O)ccc2c1=O` (racemic) [Example 609, 4-Oxo-7-(2-oxoimidazolidin-1-yl)-N-[1-(trifluoromethoxy)butan-2-yl]-1-(2,4,6-trifluorophenyl)-1,4-dihydro-1,8-naphthyridine-3-carboxamide] showed a pEC50 under setting [1] of 7.55. The Emax under setting [2] was found to be 99%.
The molecule `CC(NC(=O)c1cn(-c2c(F)cc(F)cc2F)c2nc(N3C[C@@H](C)NC3=O)ccc2c1=O)C(F)(F)C(F)(F)F` (mixture of isomers) [Example 458, 7-[(4R)-4-Methyl-2-oxoimidazolidin-1-yl]-4-oxo-N-[3,3,4,4,4-pentafluorobutan-2-yl]-1-(2,4,6-trifluorophenyl)-1,4-dihydro-1,8-naphthyridine-3-carboxamide] had a pEC50 under setting [1] of 8.52. For the same molecule, the Emax under setting [2] was 100%.
Take `CN(C)c1ccc2c(=O)c(C(=O)NC34CC5CC(C3)CC(C(F)(F)F)(C5)C4)cn(-c3ccc(F)cc3Cl)c2n1` [Example 153, 1-(2-Chloro-4-fluorophenyl)-7-(dimethylamino)-4-oxo-N-[3-(trifluoromethyl)tricyclo[3.3.1.1^3,7]dec-1-yl]-1,4-dihydro-1,8-naphthyridine-3-carboxamide]: under setting [3], the pEC50 is 6.98.
On to `O=C(NC12CC3CC(CC(C3)C1)C2)c1cn(-c2ccc(F)cc2F)c2nc(N3CCOC[C@H]3CO)ccc2c1=O` [Example 117, 1-(2,4-Difluorophenyl)-7-[(3R)-3-(hydroxymethyl)morpholin-4-yl]-4-oxo-N-(tricyclo[3.3.1.1^3,7]dec-1-yl)-1,4-dihydro-1,8-naphthyridine-3-carboxamide], for which the pEC50 under setting [3] is 7.05.
